Reference: ChEMBL document CHEMBL1201862, “PubChem BioAssay data set” (2004)
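Method: 48-hour compound exposure of cells in 96-well plates, five concentrations, linear interpolation of endpoints. GI50 marks 50% less growth.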 Active and inactive are the calls of the source. Rule as the data show it: active = GI50 up to about 1.1 µM and inactive = higher.

Legend:
Assay in all cases: growth of human tumour cells (NCI), 48 h
[1] = system: 786-0
[2] = system: KM12
[3] = system: NCI-H23
[4] = system: SK-MEL-2
[5] = system: EKVX
[6] = system: HOP-62
[7] = system: NCI-H460
[8] = system: A549
[9] = system: CAKI-1
[10] = system: MOLT-4
[11] = system: SK-MEL-28
[12] = system: U-251
[13] = system: OVCAR-4
[14] = system: OVCAR-5
[15] = system: TK-10
[16] = system: LOX IMVI
[17] = system: Malme-3M

Measured: GI50

O=C(O)C1CCC(=O)N1C(=O)C(Cl)c1ccccc1 (stereo not drawn)
inactive: [1] > 100 µM | [2] > 100 µM | [3] > 100 µM | [4] > 100 µM | [5] > 100 µM | [6] > 100 µM | [7] > 100 µM | [8] > 100 µM | [9] > 100 µM | [10] > 100 µM | [11] > 100 µM | [12] > 100 µM | [13] > 100 µM | [14] > 100 µM | [15] > 100 µM | [16] > 100 µM | [17] > 100 µM

CN(C)CCC[N+]1=Nc2cccc3cccc(c23)N1
inactive: [1] 49.8 µM | [2] > 100 µM | [3] > 100 µM | [4] > 100 µM | [5] > 100 µM | [6] > 100 µM | [7] 35.6 µM | [8] > 100 µM | [9] 37.1 µM | [10] 24.4 µM | [11] 56.2 µM | [12] 60 µM | [13] 47.1 µM | [14] > 100 µM | [15] 59.4 µM | [16] 31.9 µM | [17] > 100 µM

COc1ccc(N2C(=O)C3c4[nH]c5ccc(OC)cc5c4C4CCC(C(C)(C)C)CC4C3C2=O)cc1 (stereo not drawn)
inactive: [1] 16.8 µM | [2] 34.3 µM | [3] 19.1 µM | [4] 17.5 µM | [5] 24.7 µM | [6] 16 µM | [7] 16.6 µM | [8] 26.7 µM | [9] 42.6 µM | [10] 28.6 µM | [11] 23.2 µM | [12] 17.5 µM | [13] 4.71 µM | [14] > 100 µM | [15] 33.3 µM | [16] 34.2 µM | [17] 7.03 µM

Cc1c(C(=O)C/C(=N\O)C(=O)Nc2cc(Cl)c(Cl)cc2Cl)[n+]([O-])c2ccccc2[n+]1[O-]
inactive: [1] 22.2 µM | [2] 11.1 µM | [3] 20.9 µM | [4] 15.2 µM | [5] 22.9 µM | [6] 23.3 µM | [7] 12.8 µM | [8] 25.6 µM | [9] 34 µM | [10] 13.3 µM | [11] 22.4 µM | [12] 11 µM | [13] 9.53 µM | [14] 24.4 µM | [15] 29.2 µM | [16] 6.65 µM | [17] 9.14 µM
